Data from ChEMBL document CHEMBL3217491, “Design, synthesis and biological evaluation of imidazopyridine/pyrimidine-chalcone derivatives as potential anticancer agents” (2010).
Activity calls are given as the source filed them. The calls are words filed in the database; no cut-off is given here.

Legend:
NCI-H322M = test: Growth inhibition of human NCI-H322M cells after 48 hrs by SRB assay; type: functional
NCI-H226 = test: Growth inhibition of human NCI-H226 cells after 48 hrs by SRB assay; type: functional; details: NCI-H226, 48 h
ACHN = test: Growth inhibition of human ACHN cells after 48 hrs by SRB assay; type: functional
[1] = Growth inhibition of human OVCAR3 cells after 48 hrs by SRB assay; type: functional; details: OVCAR-3, 48 h
MCF7 [2] = test: Induction of apoptosis in human MCF7 cells assessed as increase in TNFR1 protein level at 4 uM by Western blot analysis relative to control; type: functional, cell-based
[3] = Growth inhibition of human UO31 cells after 48 hrs by SRB assay; type: functional; details: UO-31, 48 h
MDA-MB-468 = test: Growth inhibition of human MDA-MB-468 cells after 48 hrs by SRB assay; type: functional; details: MDA-MB-468, 48 h
MCF7 [4] = test: Growth inhibition of human MCF7 cells assessed as cell viability at 4 uM after 24 hrs by MTT assay; type: functional, cell-based
[5] = Growth inhibition of human EKVX cells after 48 hrs by SRB assay; type: functional
MDA-MB-231 = test: Growth inhibition of human MDA-MB-231 cells after 48 hrs by SRB assay; type: functional; details: MDA-MB-231, 48 h
MCF7 [6] = test: Induction of apoptosis in human MCF7 cells assessed as of p21 protein expression at 4 uM by Western blot analysis relative to control; type: functional, cell-based
MCF7 [7] = test: Growth inhibition of human MCF7 cells after 48 hrs by SRB assay; type: functional; details: MCF7, 48 h
A549 = test: Growth inhibition of human A549 cells after 48 hrs by SRB assay; type: functional; details: A549, 48 h
MCF7 [8] = test: Induction of cell cycle arrestin human MCF7 cells assessed as downregulation of cyclin D1 protein expression at 4 uM by Western blot analysis; type: functional, cell-based
MCF7 [9] = test: Induction of apoptosis in human MCF7 cells assessed as decrease in procaspase 9 level at 4 uM by Western blot analysis relative to control; type: functional, cell-based
[10] = Growth inhibition of human HCC2998 cells after 48 hrs by SRB assay; type: functional; details: HCC 2998, 48 h
Malme-3M = test: Growth inhibition of human MALME-3M cells after 48 hrs by SRB assay; type: functional
U-251 = test: Growth inhibition of human U251 cells after 48 hrs by SRB assay; type: functional; details: U-251, 48 h
KM12 = test: Growth inhibition of human KM12 cells after 48 hrs by SRB assay; type: functional; details: KM12, 48 h
K562 = test: Growth inhibition of human K562 cells after 48 hrs by SRB assay; type: functional; details: K562, 48 h
DU-145 = test: Growth inhibition of human DU145 cells after 48 hrs by SRB assay; type: functional; details: DU-145, 48 h
SK-OV-3 = test: Growth inhibition of human SKOV3 cells after 48 hrs by SRB assay; type: functional; details: SK-OV-3, 48 h
MCF7 [11] = test: Induction of apoptosis in human MCF7 cells assessed as upregulation of p27 protein expression at 4 uM by Western blot analysis relative to control; type: functional, cell-based
NCI-H460 = test: Growth inhibition of human NCI-H460 cells after 48 hrs by SRB assay; type: functional; details: NCI-H460, 48 h
SNB-75 = test: Growth inhibition of human SNB75 cells after 48 hrs by SRB assay; type: functional; details: SNB-75, 48 h
CCRF-CEM = test: Growth inhibition of human CCRF-CEM cells after 48 hrs by SRB assay; type: functional
HL-60(TB) = test: Growth inhibition of human HL-60(TB) cells after 48 hrs by SRB assay; type: functional; details: HL-60, 48 h
MDA-MB-435 = test: Growth inhibition of human MDA-MB-435 cells after 48 hrs by SRB assay; type: functional; details: MDA-MB-435, 48 h
NCI-H522 = test: Growth inhibition of human NCI-H522 cells after 48 hrs by SRB assay; type: functional; details: NCI-H522, 48 h
[12] = Growth inhibition of human NCI-ADR-RES cells after 48 hrs by SRB assay; type: functional
SF-268 = test: Growth inhibition of human SF268 cells after 48 hrs by SRB assay; type: functional; details: SF-268, 48 h
SK-MEL-2 = test: Growth inhibition of human SK-MEL-2 cells after 48 hrs by SRB assay; type: functional; details: SK-MEL-2, 48 h
HCT-116 = test: Growth inhibition of human HCT116 cells after 48 hrs by SRB assay; type: functional; details: HCT-116, 48 h
MCF7 [13] = test: Induction of cell cycle arrestin human MCF7 cells assessed as downregulation of cyclin A protein expression at 4 uM by Western blot analysis; type: functional, cell-based
TK-10 = test: Growth inhibition of human TK10 cells after 48 hrs by SRB assay; type: functional; details: TK-10, 48 h
MCF7 [14] = test: Cell cycle arrest in human MCF7 cells assessed as accumulation at G2/M phase at 4 uM after 24 hrs by propidium iodide staining-based flow cytometry (reference value: 15.79%); type: functional
CAKI-1 = test: Growth inhibition of human Caki1 cells after 48 hrs by SRB assay; type: functional; details: CAKI-1, 48 h
NCI-H23 = test: Growth inhibition of human NCI-H23 cells after 48 hrs by SRB assay; type: functional; details: NCI-H23, 48 h
[15] = Growth inhibition of human SF539 cells after 48 hrs by SRB assay; type: functional; details: SF-539, 48 h
[16] = Growth inhibition of human OVCAR4 cells after 48 hrs by SRB assay; type: functional; details: OVCAR-4, 48 h
PC-3 = test: Growth inhibition of human PC3 cells after 48 hrs by SRB assay; type: functional; details: PC-3, 48 h
A498 = test: Growth inhibition of human A498 cells after 48 hrs by SRB assay; type: functional; details: A498, 48 h
SN12C = test: Growth inhibition of human SN12C cells after 48 hrs by SRB assay; type: functional
M14 = test: Growth inhibition of human M14 cells after 48 hrs by SRB assay; type: functional; details: M14, 48 h
MCF7 [17] = test: Induction of cell cycle arrestin human MCF7 cells assessed as downregulation of cyclin E protein expression at 4 uM by Western blot analysis; type: functional, cell-based
[18] = Growth inhibition of human UACC257 cells after 48 hrs by SRB assay; type: functional; details: UACC-257, 48 h
MCF7 [19] = test: Induction of cell cycle arrestin human MCF7 cells assessed as downregulation of CDK2 protein expression at 4 uM by Western blot analysis; type: functional, cell-based
MCF7 [20] = test: Induction of cell cycle arrestin human MCF7 cells assessed as downregulation of E2F-1 protein expression at 4 uM by Western blot analysis; type: functional, cell-based
[21] = Growth inhibition of human MOLT4 cells after 48 hrs by SRB assay; type: functional; details: MOLT-4, 48 h
SR = test: Growth inhibition of human SR cells after 48 hrs by SRB assay; type: functional
[22] = Growth inhibition of human HCT15 cells after 48 hrs by SRB assay; type: functional; details: HCT-15, 48 h

**Q.** For `COc1ccc(C(=O)/C=C/c2c(C(F)(F)F)nc3ccccn23)cc1OC`, which GI50 (NCI-H322M) is on record?
**A.** 3.15 µM

**Q.** What about the GI50 (NCI-H226) of the same compound?
**A.** 4.55 µM

**Q.** And the GI50 (ACHN)?
**A.** 2850 nM

**Q.** And the GI50 [1]?
**A.** 1980 nM

**Q.** What about the Activity (MCF7 [2]) of the same compound?
**A.** Active

**Q.** And the GI50 [3]?
**A.** 1440 nM

**Q.** What about the GI50 (MDA-MB-468) of the same compound?
**A.** 1900 nM

**Q.** What about the inhibition (MCF7 [4]) of the same compound?
**A.** Active

**Q.** What about the GI50 [5] of the same compound?
**A.** 3.74 µM

**Q.** And the GI50 (MDA-MB-231)?
**A.** 3.06 µM

**Q.** What about the Activity (MCF7 [6]) of the same compound?
**A.** inactive

**Q.** What about the GI50 (MCF7 [7]) of the same compound?
**A.** 560 nM

**Q.** And the GI50 (A549)?
**A.** 2800 nM

**Q.** And the inhibition (MCF7 [8])?
**A.** Active

**Q.** What about the inhibition (MCF7 [9]) of the same compound?
**A.** Active

**Q.** What about the GI50 [10] of the same compound?
**A.** 480 nM

**Q.** What about the GI50 (Malme-3M) of the same compound?
**A.** 6.69 µM

**Q.** What about the GI50 (U-251) of the same compound?
**A.** 1100 nM

**Q.** What about the GI50 (KM12) of the same compound?
**A.** 570 nM

**Q.** And the GI50 (K562)?
**A.** 360 nM

**Q.** What about the GI50 (DU-145) of the same compound?
**A.** 650 nM

**Q.** And the GI50 (SK-OV-3)?
**A.** 2490 nM

**Q.** And the Activity (MCF7 [11])?
**A.** Active

**Q.** What about the GI50 (NCI-H460) of the same compound?
**A.** 680 nM

**Q.** And the GI50 (SNB-75)?
**A.** 2350 nM

**Q.** And the GI50 (CCRF-CEM)?
**A.** 440 nM

**Q.** What about the GI50 (HL-60(TB)) of the same compound?
**A.** 1520 nM

**Q.** And the GI50 (MDA-MB-435)?
**A.** 2040 nM

**Q.** What about the GI50 (NCI-H522) of the same compound?
**A.** 5.73 µM

**Q.** And the GI50 [12]?
**A.** 1570 nM

**Q.** What about the GI50 (SF-268) of the same compound?
**A.** 1570 nM

**Q.** And the GI50 (SK-MEL-2)?
**A.** 1720 nM

**Q.** And the GI50 (HCT-116)?
**A.** 840 nM

**Q.** And the inhibition (MCF7 [13])?
**A.** inactive

**Q.** What about the GI50 (TK-10) of the same compound?
**A.** 3.78 µM

**Q.** And the Activity (MCF7 [14])?
**A.** 0.31%

**Q.** And the GI50 (CAKI-1)?
**A.** 2500 nM

**Q.** And the GI50 (NCI-H23)?
**A.** 2370 nM

**Q.** What about the GI50 [15] of the same compound?
**A.** 1650 nM

**Q.** What about the GI50 [16] of the same compound?
**A.** 2490 nM

**Q.** And the GI50 (PC-3)?
**A.** 2730 nM

**Q.** What about the GI50 (A498) of the same compound?
**A.** 2450 nM

**Q.** What about the GI50 (SN12C) of the same compound?
**A.** 1910 nM

**Q.** And the GI50 (M14)?
**A.** 3.63 µM

**Q.** What about the inhibition (MCF7 [17]) of the same compound?
**A.** Active

**Q.** What about the GI50 [18] of the same compound?
**A.** 620 nM

**Q.** What about the inhibition (MCF7 [19]) of the same compound?
**A.** Active

**Q.** And the inhibition (MCF7 [20])?
**A.** inactive

**Q.** And the GI50 [21]?
**A.** 1030 nM

**Q.** And the GI50 (SR)?
**A.** 440 nM

**Q.** What about the GI50 [22] of the same compound?
**A.** 1130 nM
